Source: publication PMC6336890 (Scientific Reports, 2019)

Target: PARP1 (Homo sapiens, UniProt P09874)
Assay: in vitro PARP1 activity ELISA, recombinant enzyme
Type: biochemical

Chain of PARP1 (P09874 2-1014): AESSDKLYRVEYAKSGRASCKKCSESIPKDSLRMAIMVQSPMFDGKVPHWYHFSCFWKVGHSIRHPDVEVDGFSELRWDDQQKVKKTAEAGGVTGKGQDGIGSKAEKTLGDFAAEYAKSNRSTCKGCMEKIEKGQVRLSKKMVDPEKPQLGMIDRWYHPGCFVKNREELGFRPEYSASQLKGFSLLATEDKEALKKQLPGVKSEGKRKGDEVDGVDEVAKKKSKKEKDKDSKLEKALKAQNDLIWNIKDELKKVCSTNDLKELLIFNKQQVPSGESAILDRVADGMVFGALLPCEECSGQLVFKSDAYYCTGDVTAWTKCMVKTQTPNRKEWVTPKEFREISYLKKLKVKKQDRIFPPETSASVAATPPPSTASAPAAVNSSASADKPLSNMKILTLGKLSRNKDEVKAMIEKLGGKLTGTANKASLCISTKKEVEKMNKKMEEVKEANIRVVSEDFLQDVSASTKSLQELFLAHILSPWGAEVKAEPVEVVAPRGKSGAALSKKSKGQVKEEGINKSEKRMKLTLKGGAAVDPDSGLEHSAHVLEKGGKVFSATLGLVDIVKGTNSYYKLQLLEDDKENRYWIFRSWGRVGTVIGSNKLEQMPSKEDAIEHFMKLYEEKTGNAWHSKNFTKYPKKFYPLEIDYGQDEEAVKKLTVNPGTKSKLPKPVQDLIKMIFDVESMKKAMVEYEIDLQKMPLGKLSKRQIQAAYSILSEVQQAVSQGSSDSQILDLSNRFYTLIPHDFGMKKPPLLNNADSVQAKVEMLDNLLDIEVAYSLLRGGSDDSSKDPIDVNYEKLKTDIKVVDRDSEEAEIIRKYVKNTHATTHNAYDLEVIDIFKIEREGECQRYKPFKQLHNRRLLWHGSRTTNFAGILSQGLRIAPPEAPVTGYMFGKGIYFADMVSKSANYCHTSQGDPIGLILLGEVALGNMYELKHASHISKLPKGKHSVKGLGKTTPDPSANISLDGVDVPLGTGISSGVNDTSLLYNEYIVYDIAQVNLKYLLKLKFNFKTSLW

IC50: 0.54 µM
SMILES: Cc1ccc2c(=O)[nH]c(-c3ccc(C(C)(C)O)cc3)cn12 [MSC2504877]
